Test results as given in patent US7482375B2, “Compounds useful in therapy” (Pfizer Inc., priority 2005, dated 2009).

Tests used:
[1] = biological target: T1, Progesterone Receptor (PR) (Homo sapiens, UniProt P06401); assay: In vitro functional assay for progesterone receptor (PR) antagonism: inhibition of progesterone-induced alkaline phosphatase expression in T47D cells; assay type: cell-based; settings: Screen 1.0, functional progesterone antagonism; antagonist format (5 nM P4), alkaline phosphatase inhibition in T47D human mammary carcinoma cells
T1 construct: endogenous in cells; host or cells: T47D human breast mammary carcinoma cells
T1 sequence (P06401 1-933): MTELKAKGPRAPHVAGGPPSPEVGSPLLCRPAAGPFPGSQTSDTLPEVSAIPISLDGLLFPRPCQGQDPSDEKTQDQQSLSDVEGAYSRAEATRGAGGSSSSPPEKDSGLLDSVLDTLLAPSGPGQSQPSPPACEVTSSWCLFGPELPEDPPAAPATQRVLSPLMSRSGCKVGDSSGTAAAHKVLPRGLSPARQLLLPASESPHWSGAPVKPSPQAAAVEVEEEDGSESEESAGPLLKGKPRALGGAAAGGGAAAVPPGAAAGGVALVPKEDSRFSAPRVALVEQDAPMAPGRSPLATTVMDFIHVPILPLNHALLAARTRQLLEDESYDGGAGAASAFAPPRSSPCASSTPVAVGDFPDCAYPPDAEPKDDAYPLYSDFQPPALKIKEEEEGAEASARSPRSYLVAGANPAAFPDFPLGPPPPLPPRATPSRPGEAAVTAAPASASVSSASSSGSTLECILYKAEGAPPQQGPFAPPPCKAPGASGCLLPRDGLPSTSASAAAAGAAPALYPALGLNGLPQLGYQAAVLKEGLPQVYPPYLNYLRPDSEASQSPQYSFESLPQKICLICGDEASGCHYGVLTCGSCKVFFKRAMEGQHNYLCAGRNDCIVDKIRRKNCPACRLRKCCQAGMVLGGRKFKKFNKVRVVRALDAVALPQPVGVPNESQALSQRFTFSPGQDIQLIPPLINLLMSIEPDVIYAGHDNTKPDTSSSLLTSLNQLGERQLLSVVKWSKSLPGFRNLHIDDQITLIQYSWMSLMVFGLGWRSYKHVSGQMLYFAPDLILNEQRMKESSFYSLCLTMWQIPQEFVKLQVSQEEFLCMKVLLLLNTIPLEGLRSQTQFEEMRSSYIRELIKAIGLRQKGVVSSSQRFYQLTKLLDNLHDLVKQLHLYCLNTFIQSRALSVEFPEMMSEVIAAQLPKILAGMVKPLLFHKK
From the text: 1.0 In vitro Functional Assay for Progesterone Receptor (PR) Antagonism
The assay for PR antagonism takes advantage of the extensively reported modulation of alkaline phosphatase (AP) expression in human breast T47D mammary carcinoma cells {Beck et al., D. P. (1993). The progesterone antagonist RU486 acquires agonist activity upon stimulation of cAMP signalling pathways. Proc Natl Acad Sci USA 90, 4441-4445; Fensome et al. (2002). New progesterone receptor antagonists: 3,3-disubstituted-5-aryloxindoles. Bioorg Med Chem Left 12, 3487-3490; Zhang et al., (2002a). 6-Aryl-1,4-dihydro-benzo d 1,3 oxazin-2-ones: a novel class of potent, selective, and orally active nonsteroidal progesterone receptor antagonists. Journal of Medicinal Chemistry 45, 4379-4382; Zhang et al., (2003). Novel 6-aryl-1,4-dihydrobenzo d oxazine-2-thiones as potent, selective, and orally active nonsteroidal progesterone receptor agonists. Bioorganic & Medicinal Chemistry Letters 13, 1313-1316; Zhang et al., (2002b). Potent nonsteroidal progesterone receptor agonists: synthesis and SAR study of 6-aryl benzoxazines. Bioorganic & Medicinal Chemistry Letters 12, 787-790; Zhang, Z. et al., (2000). In vitro characterization of trimegestone: a new potent and selective progestin. Steroids 65, 637-643.}. […] In the absence of progesterone any agonist activity is also observed as an induction of AP activity. By running the assay in two formats (+/−progesterone (P4)), compounds behaving as PR antagonists, agonists or partials can be identified.
The materials required to grow T47D cells and perform the progesterone-induced AP assay are outlined in Table 1.
Briefly, T47D cells are grown by propagating in DMEM+10% FBS+2 mM Glutamax at 37° C./5% CO2. At 80-90% confluence, the media is exchanged for phenol red free DMEM+5% CS-FCS (Assay media) and cultured for a further 24 hrs at 37° C./5% CO2. T47D cells are then plated at 2.5×10^4 cells/well in 100 μL assay media in sufficient 96 well plates for the assay, in triplicates of each condition. For example, for a 5 point IC50 curve on one compound, this is equivalent to 36 wells (2×18 wells, ±P4). These plates are then cultured for 24 hrs at 37° C./5% CO2, leaving the outside wells blank by the addition of 200 μL PBS.
A 10 mM stock solution of compounds is prepared in DMSO (stored −20° C. in 10 µL aliquots). A 10 mM DMSO stock of RU486 is used as a standard pure PR antagonist. The compounds under investigation are added to assay medium, or a mixture of 0.05% pluronic acid in PBS, ±10 nM P4 to give a final concentration of 20 µM (i.e. 10 µL of the 10 mM stock to […] assay medium ±10 nM P4). The samples are mixed thoroughly and serial dilutions of compounds from 10 µM to 0.1 nM in a 96 well plate, are prepared as follows:
The outside wells are left blank. Assay medium (225 μL) is added to one half of the plate (−P4), rows 3-8, and to the other half of the plate, assay medium +10 nM P4. To row 2, 250 μL of the top concentration of compound (20 μM±10 nM P4) is added. 25 μL of the […] stock from row 2 is removed and added to the 225 μL of assay medium ±10 nM P4 in row 3 and thoroughly mixed. This process is repeated down the plate to row 7 to achieve serial dilutions. The vehicle control is adjusted to contain 0.1% DMSO (i.e. 20 μL to 10 mL assay medium ±10 nM P4 to give a concentration of 0.2% DMSO, add 250 μL to row 8).
100 μL of reagent from the dilution plates are transferred into the corresponding wells containing T47D cells in 100 μL assay medium, to give a final concentration of 10 μM to 0.1 nM compound (5 nM P4 antagonist format). The cells for 20 hrs at 37° C./5% CO2., then media is removed, cells washed with PBS (200 μL) and lysed by placing the cells at −80° C. for 15 min and thawing at room temp. The Freeze-thaw lysis is repeated, then PBS (50 μL) is added to each well. […]

SMILES | melting point | IC50 [1]
CCc1nn(CCO)c(CC)c1Oc1ccc(C#N)c(Cl)c1 | 85 °C | 
CNC(=O)Cn1nc(C2CC2)c(Oc2cc(C)c(C#N)c(C)c2)c1C1CC1 [Example 65, 2-[4-(4-Cyano-3,5-dimethylphenoxy)-3,5-dicyclopropyl-1H-pyrazol-1-yl]-N-methyl-acetamide] |  | 3 nM
CCCn1nc(CC)c(Oc2ccc(C#N)cc2)c1CC [Example 146, 4-[(3,5-Diethyl-1-propyl-1H-pyrazol-4-yl)oxy]benzonitrile] |  | 6 nM
CNC(=O)Cn1nc(C2CC2)c(Oc2ccc(C#N)cc2)c1C1CC1 [Example 52, 2-[4-(4-Cyanophenoxy)-3,5-dicyclopropyl-1H-pyrazol-1-yl]-N-methylacetamide] | 163 °C | 
CCc1nn(CCO)c(CC)c1Oc1cc(C)c(C#N)c(C)c1 [Example 27, 4-[3,5-Diethyl-1-(2-hydroxy-ethyl)-1H-pyrazol-4-yloxy]-2,6-dimethyl-benzonitrile] | 97 °C | 
CCc1nn(CC#N)c(CC)c1Oc1cc(C)c(C#N)c(C)c1 [Example 87, 4-{[1-(Cyanomethyl)-3,5-diethyl-1H-pyrazol-4-yl]oxy}-2,6-dimethylbenzonitrile] |  | 5 nM
Cc1cc(Oc2c(C3CC3)nn(Cc3cncnc3)c2C2CC2)cc(C)c1C#N [Example 126, 4-({3,5-Dicyclopropyl-1-[(pyrimidin-5-yl)methyl]-1H-pyrazol-4-yl}oxy)-2,6-dimethylbenzonitrile] |  | 3 nM
CCOC(=O)Cn1nc(CC)c(Oc2ccc(C#N)cc2)c1CC [Example 35, Ethyl[4-(4-cyanophenoxy)-3,5-diethyl-1H-pyrazol-1-yl]acetate] | 147 to 149 °C | 
Cc1cc(Oc2c(C3CC3)n[nH]c2C2CC2)cc(C)c1C#N [Example 4, 4-[(3,5-Dicyclopropyl-1H-pyrazol-4-yl)oxy]-2,6-dimethylbenzonitrile] |  | 9 nM
CNC(=O)Cn1nc(C2CC2)c(Oc2cc(C)c(C#N)c(C)c2)c1C [Example 71, 2-[4-(4-Cyano-3,5-dimethyl-phenoxy)-3-cyclopropyl-5-methyl-1H-pyrazol-1-yl]-N-methyl-acetamide] |  | 4 nM
CCOC(=O)Cn1nc(C2CC2)c(Oc2cc(C)c(C#N)c(C)c2)c1C1CC1 (hydrate or solvate) [Example 38, Ethyl[4-(4-cyano-3,5-dimethylphenoxy)-3,5-dicyclopropyl-1H-pyrazol-1-yl]acetate] | 156 to 157 °C | 
CCc1nn(CCO)c(CC)c1Oc1ccc(C#N)cc1 [Example 21, 4-[3,5-Diethyl-1-(2-hydroxy-ethyl)-1H-pyrazol-4-yloxy]-benzonitrile] | 82 °C | 
